Assay results as given in article PMC8528301 (PLoS ONE, 2021).
“And” between values parts separate entries of the source, which are not always exact repeats. Equal entries are not always repeated.

Tests used:
[1] = tested on: BCR-ABL Arf-/- Luc+ ALL cells; experiment: Survival study of mice with BCR-ABL Arf-/- leukemia on discontinuous DEX regimen; type: in vivo, mouse; conditions: VD3 Sufficient, days survived 59
Text: Murine BCR-ABL Arf^-/- Luc^+ ALL cells were created by Dr. Charles Sherr (St. Jude Children’s Research Hospital) and provided immediately prior to mouse injection by the laboratory of Dr. Mary Relling (St. Jude Children’s Research Hospital). The cells had been tested for mycoplasma and were authenticated by flow cytometry for cell surface markers, tested for their leukemia-inducing capabilities with serial dilutions of cell numbers (from 2 million down to 2,000 cells), and ensured that the cells with the luciferase constructs produced light when combined with luciferin. Only cells from early passage (P3-P15) were used for these experiments. The St Jude Children’s Research Hospital Institutional Biosafety Committee and IACUC approved the use of these cells for injection into mice. C57BL/6 VD3 sufficient (n = 24) and deficient (n = 22) male mice (8–18 wk of age) were anaesthetized using isoflurane and injected iv with 2,000 BCR-ABL Arf^-/- Luc^+ ALL cells on day zero. […] Xenogen IVIS-200 (Caliper Life Sciences, Hopkinton, MA) was used to acquire bioluminescent images 5 minutes post-intra peritoneal injection of 200 μL of 100 mg/kg D-Luciferin (Caliper Life Sciences, Hopkinton, MA). Mice were anaesthetized with isoflurane during this procedure. The bioluminescent signal (photons/s) from a fixed region of interest (ROI) is used to monitor the disease progression twice every week. Images acquired here were analyzed using Living Image 3.1 software (Caliper Life Sciences), where whole body luciferase flux measurements (photons/s) were quantified as disease burden. Animal Welfare: All efforts were taken to minimize suffering and distress in the survival studies. […] All other mice in the survival study were euthanized within hours of reaching the humane end point/end of study = moribund for any reason which was determined based on hind limb paralysis (very typically observed in mice with BCR-ABL ALL), scruffy coat, lethargy or an inability to obtain food or water (SJ IACUC protocol #100468–613). A portion of spleen and hind limb were fixed, paraffin embedded, cut, and slides stained with hematoxylin and eosin and evaluated by a St Jude Pathologist (Dr. Laura Janke) to confirm leukemia was the cause of death.

[2] = Repeated discontinuous oral DEX PK study (another 60 mice); type: in vivo, mouse; conditions: for share of mice with measurable DEX / share of mice with DEX plasma concentration below LLOQ: Days 3.5+10.5; for share of mice with DEX plasma concentration below LLOQ: LLOQ = 5 nM; for concentration at 3.5 day / concentration at 10.5 day / concentration at 17.5 day: 8 mg/L, Average ± S.D. of quantifiable samples
Protocol: 1 g/L of tetracycline (Sigma-Aldrich Inc, St. Louis, MO, USA) was added during both phases. Assuming that mice drink 5 mL of water per day, the dose they receive would be 1.6–2 mg/kg/day. […] At the end of in vivo procedures, all plasma samples were transferred from dry ice and stored at –80°C until analysis.

GCR = conditions: read-out: GCR EC50; printed in Fig 9; ref J Biol Chem. 2002 Jan 11; PMID: 11682470; cited from earlier work

## C[C@@H]1C[C@H]2[C@@H]3CCC4=CC(=O)C=C[C@]4(C)[C@@]3(F)[C@@H](O)C[C@]2(C)[C@@]1(O)C(=O)CO [DEX, dexamethasone]
[1]
  Survival proportions: 18.2
[2]; female VD3 deficient
  share of mice with measurable DEX: 100%
[2]; female VD3 sufficient
  share of mice with DEX plasma concentration below LLOQ: 68%
[2]; female, C57BL/6, mouse, plasma, oral, 8 mg/L in drinking water, DEX conc, individual mouse, repeated study, VD3 Suf, 3.5 Days
  concentration at 3.5 days: 52.8 nM
[2]; female, C57BL/6, mouse, plasma, oral, 8 mg/L in drinking water, DEX conc, individual mouse, repeated study, VD3 Suf, 10.5 Days
  concentration at 10.5 days: 6.84 nM
[2]; female, C57BL/6, mouse, plasma, oral, DEX conc, plasma, repeated study, VD3 Deficient, F, Day 3.5, n=15
  concentration at 3.5 day: 51.8 ± 86.8 nM
[2]; female, C57BL/6, mouse, plasma, oral, DEX conc, plasma, repeated study, VD3 Deficient, F, Day 10.5, n=10
  concentration at 10.5 day: 116 ± 169 nM
[2]; female, C57BL/6, mouse, plasma, oral, DEX conc, plasma, repeated study, VD3 Deficient, F, Day 17.5, n=5
  concentration at 17.5 day: 106 ± 65.5 nM
[2]; female, C57BL/6, mouse, plasma, oral, DEX conc, plasma, repeated study, VD3 Sufficient, F, Day 3.5, n=5
  concentration at 3.5 day: 47.2 ± 9.15 nM
[2]; female, C57BL/6, mouse, plasma, oral, DEX conc, plasma, repeated study, VD3 Sufficient, F, Day 10.5, n=3
  concentration at 10.5 day: 7.71 ± 1.12 nM
[2]; female, C57BL/6, mouse, plasma, oral, DEX conc, plasma, repeated study, VD3 Sufficient, F, Day 17.5, n=5
  concentration at 17.5 day: 45.6 ± 27.2 nM
[2]; female, VD3 Def, 3.5 Days
  % BLQ: 0%
[2]; female, VD3 Def, 10.5 Days
  % BLQ: 0%
[2]; female, VD3 Def, 17.5 Days
  % BLQ: 0%
[2]; female, VD3 Suf, 3.5 Days
  % BLQ: 67%
[2]; female, VD3 Suf, 10.5 Days
  % BLQ: 70%
[2]; female, VD3 Suf, 17.5 Days
  % BLQ: 0%
[2]; male VD3 deficient
  share of mice with measurable DEX: 96.5%
[2]; male VD3 sufficient
  share of mice with DEX plasma concentration below LLOQ: 83%
[2]; male, C57BL/6, mouse, plasma, oral, DEX conc, plasma, repeated study, VD3 Deficient, M, Day 3.5, n=13
  concentration at 3.5 day: 16 ± 16.6 nM
[2]; male, C57BL/6, mouse, plasma, oral, DEX conc, plasma, repeated study, VD3 Deficient, M, Day 10.5, n=10
  concentration at 10.5 day: 48.7 ± 59.4 nM
[2]; male, C57BL/6, mouse, plasma, oral, DEX conc, plasma, repeated study, VD3 Deficient, M, Day 17.5, n=5
  concentration at 17.5 day: 16.7 ± 7.19 nM
[2]; male, C57BL/6, mouse, plasma, oral, DEX conc, plasma, repeated study, VD3 Sufficient, M, Day 3.5, n=5
  concentration at 3.5 day: 30.1 ± 14.4 nM
[2]; male, C57BL/6, mouse, plasma, oral, DEX conc, plasma, repeated study, VD3 Sufficient, M, Day 17.5, n=5
  concentration at 17.5 day: 25.2 ± 8.2 nM
[2]; male, VD3 Def, 10.5 Days
  % BLQ: 0%
[2]; male, VD3 Def, 17.5 Days
  % BLQ: 0%
[2]; male, VD3 Suf, 10.5 Days
  % BLQ: 100%
[2]; male, VD3 Suf, 17.5 Days
  % BLQ: 0%
[2]; plasma, repeated study, VD3 Deficient, F, Day 3.5, n=15
  DEX conc, Average ± S.D. of quantifiable samples: 51.832 nM
[2]; plasma, repeated study, VD3 Deficient, F, Day 10.5, n=10
  DEX conc, Average ± S.D. of quantifiable samples: 116.245 nM
[2]; plasma, repeated study, VD3 Deficient, F, Day 17.5, n=5
  DEX conc, Average ± S.D. of quantifiable samples: 105.912 nM
[2]; plasma, repeated study, VD3 Deficient, M, Day 3.5, n=13
  DEX conc, Average ± S.D. of quantifiable samples: 15.9992 nM
[2]; plasma, repeated study, VD3 Deficient, M, Day 10.5, n=10
  DEX conc, Average ± S.D. of quantifiable samples: 48.71 nM
[2]; plasma, repeated study, VD3 Deficient, M, Day 17.5, n=5
  DEX conc, Average ± S.D. of quantifiable samples: 16.66 nM
[2]; plasma, repeated study, VD3 Sufficient, F, Day 3.5, n=5
  DEX conc, Average ± S.D. of quantifiable samples: 47.222 nM
[2]; plasma, repeated study, VD3 Sufficient, F, Day 10.5, n=3
  DEX conc, Average ± S.D. of quantifiable samples: 7.71 nM
[2]; plasma, repeated study, VD3 Sufficient, F, Day 17.5, n=5
  DEX conc, Average ± S.D. of quantifiable samples: 45.604 nM
[2]; plasma, repeated study, VD3 Sufficient, M, Day 3.5, n=5
  DEX conc, Average ± S.D. of quantifiable samples: 30.144 nM
[2]; plasma, repeated study, VD3 Sufficient, M, Day 17.5, n=5
  DEX conc, Average ± S.D. of quantifiable samples: 25.19 nM
[2]; plasma, repeated study, female, VD3 Suf, 3.5 Days
  DEX conc, individual mouse: BLQ (BLQ = BELOW the LLOQ, lower lmit of quantification = 5 nM dexamethasone)
[2]; plasma, repeated study, female, VD3 Suf, 10.5 Days
  DEX conc, individual mouse: BLQ (BLQ = BELOW the LLOQ, lower lmit of quantification = 5 nM dexamethasone)
[2]; plasma, repeated study, male, VD3 Def, 3.5 Days
  DEX conc, individual mouse: 9.88 nM and 17.04 nM and 5.32 nM and 11.52 nM and 38.23 nM and BLQ (BLQ = BELOW the LLOQ, lower lmit of quantification = 5 nM dexamethasone) and 6.47 nM and 59.55 nM and 8.86 nM and 29.02 nM and 4.39 nM and 6.91 nM
[2]; plasma, repeated study, male, VD3 Def, 10.5 Days
  DEX conc, individual mouse: 19.46 nM and 37.99 nM and 211.48 nM and 27.59 nM and 28.34 nM and 9.45 nM and 27.41 nM
[2]; plasma, repeated study, male, VD3 Def, 17.5 Days
  DEX conc, individual mouse: 12.05 nM and 27.36 nM
[2]; plasma, repeated study, male, VD3 Suf, 3.5 Days
  DEX conc, individual mouse: BLQ (BLQ = BELOW the LLOQ, lower lmit of quantification = 5 nM dexamethasone)
[2]; plasma, repeated study, male, VD3 Suf, 10.5 Days
  DEX conc, individual mouse: BLQ (BLQ = BELOW the LLOQ, lower lmit of quantification = 5 nM dexamethasone)
[2]; plasma, repeated study, male, VD3 Suf, 17.5 Days
  DEX conc, individual mouse: 22.35 nM and 12.66 nM and 32.4 nM and 32.15 nM and 26.39 nM
[2]; share of plasma samples below LLOQ 5 nM, male, VD3 Suf, 3.5 Days
  % BLQ: 67%
GCR
  EC50: 11 nM
